Reference: publication PMC5877439 (British Journal of Cancer, 2018)

Experiments:
[1] = Plasma MK-0752 PK analysis; assay type: in vivo, human
[2] = Tumour MK-0752 concentration in biopsies; assay type: in vivo, human; conditions: between the 1500 and 2100 mg doses; data limited
[3] = Safety, tolerability, DLT and MTD; assay type: in vivo, human
[4] = test system: Notch signalling; assay: Notch signature score in plucked hair follicles; assay type: in vivo, human; conditions: number of samples limited
[5] = ref Krop et al, 2012, cited from earlier work

SMILES | MK-0752 plasma exposure across the dose groups ([1]; 1200-2400 mg once weekly) | Plasma MK-0752 exposure (AUC0-t) and Cmax, effect of gemcitabine ([1]; day 1 (MK-0752+gemcitabine) vs day -7 (MK-0752 alone), 40 patients) | Tumour MK-0752 concentration across doses [2] | MTD / RP2D of MK-0752 in combination with gemcitabine ([3]; p.o. once weekly, with gemcitabine 1000 mg m^-2) | Relationship between MK-0752 dose and fold-change in Notch score [4] | Drug exposure with dose, single agent ([5]; phase I studies of MK-0752 alone) | Recommended dose for phase II evaluation (RP2D), single agent ([5]; single-agent studies) | Maximum tolerated dose (MTD), single agent ([5]; weekly schedule, MK-0752 alone) | MTD / RP2D of gemcitabine in combination with MK-0752 ([3]; i.v. days 1, 8 and 15 of 28 day cycle, with MK-0752 1800 mg)
O=C(O)CC[C@H]1CC[C@@](c2cc(F)ccc2F)(S(=O)(=O)c2ccc(Cl)cc2)CC1 [MK-0752] | no increment in exposure beyond the RP2D single-agent dose (1800 mg weekly) | did not appear to be affected by the addition of gemcitabine | no increment | 1800 mg | no relationship | no significant increase in drug exposure between 1800 mg and 3200 mg | 1800 mg | 3200 mg | 
Nc1ccn([C@@H]2O[C@H](CO)[C@@H](O)C2(F)F)c(=O)n1 [gemcitabine, 2′,2′,-difluoro-2′,-deoxycytidine, reference compound] |  |  |  |  |  |  |  |  | 1000 mg m^-2
